# Reference: US12594248B2, “Stress management in human subjects in need thereof” (YEDA RESEARCH AND DEVELOPMENT CO. LTD., priority 2020, dated 2026)
# What was measured:
# [1] = test system: men and women participants; experiment: Subjective stress level reports, men and women, Example 2; assay type: in vivo, human; conditions: two-way ANOVA, gender and fragrance condition; F(1,56)=5.1, p=0.03; no interaction; HEX vs PLACEBO; FIG. 4
# Experimental: (§1) Sixty-four participants (35 women) with an average age of 27.34 (SD 4.65), half participated in the HEX group and the other half in the PLACEBO group. The study was conducted in Ra'anana, Israel in a rented office using a laptop computer.
# (§2) Participants came in separately into the Ra'anana office, a research assistant (RA) welcomed them. After a short brief, participants were introduced with a bottle of liquid and were required to smell the bottle for 1 minute (with the instruction to breath normally). After being exposed to the smell, the RA explained about the three tasks (memory, attention, public speaking—the stressor). Participants reported their stress level before and after each assignment (7 times). Just before the last task, participants were informed that this task was canceled and then were asked to report their stress level for the last time.
# The first stress report was given pre-manipulation; therefore, it may shed light upon the general stress level of the participants. Mean score for first stress report was 3.32 (SD 1.68) for men and 2.59 (SD 1.76) for women.
# A two-way ANOVA was conducted with average stress (measures 2-6) as a dependent variable and gender and fragrance condition as the independent variables. […] Main effect for fragrance was also significant, F(1,56)=5.1, p=0.03. No interaction was found (F<0.1). […]
# [2] = test system: mouse OR37 receptor subtype B; conditions: Klein et al [15]; cited from earlier work
# [3] = test system: men and women participants; experiment: Average heart rate (HR) along the experiment, Example 2; assay type: in vivo, human; conditions: men and women together; FIG. 5, p<0.0001
# Experimental: as §1, §2
# [4] = test system: male subjects; experiment: Memory test (free recall), Example 1; assay type: in vivo, human; conditions: FIG. 3
# Experimental: (§3) • 30 male subjects, 15 using Olfactory Blue (OB—Hexadecanal) and 15 with placebo. […] Equipment • Computer/laptop with test script and cognitive tests • HR wrist monitor and Central unit • Video camera • 2×50 ml identical bottles—one with OB (solvent+Hexadecanal) and one only with dipropylene glycol (DPG) Goals and KPIs.
# (§4) • Subjects—men only [mean age: 24.97 (SD=1.92)]. • An isolated office space (to avoid subject distraction) is prepared with a table and chair. • The computer, Modify standalone and the video recording are positioned and prepared. […] End of experiment • Experimenter debriefs subject—asks for general comments and feeling • Subjective stress level • End of test Measurements The following physiological measurements are recorded: 1. […] The following psychological/subjective measurements are recorded: 2. Memory test—the ability to remember a series of words seen one after the other and after conducting several simple mathematical tasks; scored by counting number of words correctly remembered. […] Subjective stress level—the stress level the subject feels at that moment; recorded on the computer.
# [5] = test system: men and women participants; experiment: Attention test (Stroop test), Example 2; assay type: in vivo, human; conditions: HEX vs placebo group
# Experimental: as §1, §2
# [6] = test system: men and women participants; experiment: Memory test (free recall), Example 2; assay type: in vivo, human; conditions: HEX vs placebo group
# Experimental: as §1, §2
# [7] = test system: male subjects; experiment: Stroop test (attention, cognitive performance), Example 1; assay type: in vivo, human; conditions: FIG. 2
# Experimental: as §3
# • Subjects—men only [mean age: 24.97 (SD=1.92)]. • An isolated office space (to avoid subject distraction) is prepared with a table and chair. • The computer, Modify standalone and the video recording are positioned and prepared. Test Running • Subject is introduced and asked to take place in front of computer • Experimenter briefs the subject on the test procedure in general • Subject fills in a consent form (including GDPR consent) and signs the receipt for the money (see form in annex) • Subject fills in personal data on the computer • Experimenter presents the scent bottle (OB or Placebo) given to them by an assistant (who records which bottle has been given) to the subject to smell five sniffs within one minute (2% in the bottle). • Subject is asked about their subjective stress level on a scale between 0 (no stress at all) to 10 (extreme stress)—questionnaire on the computer • Experimenter completes the briefing and introduce 3 assignments to the participants: a memory task, a Stroop task and the stress manipulation—subject will have to give a 5 min lecture to an audience on one of three given topics—stressor. • Subject starts the experiment by following instructions on the computer: 1. […] End of experiment • Experimenter debriefs subject—asks for general comments and feeling • Subjective stress level • End of test Measurements The following physiological measurements are recorded: 1. […] The following psychological/subjective measurements are recorded: 2. Memory test—the ability to remember a series of words seen one after the other and after conducting several simple mathematical tasks; scored by counting number of words correctly remembered. […] Subjective stress level—the stress level the subject feels at that moment; recorded on the computer.
# [8] = test system: male subjects; experiment: Subjective stress level reports under a lecture stressor, Example 1; assay type: in vivo, human; conditions: scale 0-10, FIG. 1
# Experimental: For experiments 0.083M of Hexadecanal (HEX) dissolved in propylene glycol was used. Heating it for a few minutes eases the process (37° C. is sufficient). The mixture was aliquoted into daily portions, such that we thawed a daily serving prior to experiments. Participants were exposed to 100 ul of 0.083M HEX in 10 consecutive sniffs from a jar, and then taped a band aid with 30 ul on the upper lip. The band aid stayed to assure exposure throughout the experiment. Since propylene glycol has an odor, we used a masking odor.
# • 30 male subjects, 15 using Olfactory Blue (OB—Hexadecanal) and 15 with placebo. […]
# as §4, with “computer. […]” for “computer.”
# [9] = test system: mouse OR37 receptor subtype A; conditions: Klein et al [15]; cited from earlier work
# [10] = test system: mouse OR37 receptor subtype C; conditions: Klein et al [15]; cited from earlier work
smiles,measurement,setting,value
"CCCCCCCCCCCCCCCC=O [HEX, Hexadecanal]","average stress (measures 2-6), main effect for fragrance",[1],significant
same,activation of OR37 subtype B,[2],activated
same,average HR vs placebo group,[3],lower
same,"free recall assignment, difference between conditions",[4],no differences
same,"attention (Stroop test), difference between groups",[5],did not differ
same,"memory (free recall), difference between groups",[6],did not differ
same,"Stroop test number of errors, blue vs placebo",[7],No differences
same,"Stroop test reaction time, blue vs placebo",[7],No differences
same,cognitive performance relative to placebo,[7]; as evidenced by the Stroop test,does not affect cognitive performance
same,"subjective stress report, difference between groups","[8]; stress0 (baseline) and stress4 (end, after being told there will be no lecture)",no difference
same,subjective stress report vs Placebo group,"[8]; stress1, stress2, stress3 (after assignments and smelling, after memory test, after Stroop test), 15 vs 15 men, p<0.01",significantly lower degree
CCCCCCCCCCCCCCC=O [pentadecanal],activation of OR37 subtype A,[9],activated
CCCCCCCCCCCCCCCCC=O [heptadecanal],activation of OR37 subtype C,[10],activated
